Results: patent US20140120088A1, “AGENTS FOR THE TREATMENT OF TUMORS” (Assistance Publique-Hopitaux de Paris, priority 2011, published 2014)

Test system: high-grade glioma with subarachnoid extension
Test: treatment of patients with high-grade glioma with subarachnoid extension
Format: in vivo, human
Details: responding patients; before the combined treatment, under bevacizumab alone, or when intrathecal CpG was resumed
Experimental: Four patients had high-grade glioma with subarachnoid extension. The treatment protocol of patients was as follows:
Subcutaneous injection of 0.3 mg/kg of CpG-ODN at D0, D7, D14, D21 et D28 (capped at 25 mg per injection, for patients>83 kg)
Intrathecal administration of CpG-ODN (7 mg) (in the cerebrospinal fluid) three times, with a two-week interval between each injection (D0, D14 and D28). (In 2 patients, the intrathecal injections were continued every 2 to 4 weeks for several months). (Other intrathecal injections of larger amounts of CpG-ODN (14 mg or 17 mg), again in three steps with a two weeks interval between each injection are currently tested, in other patients in a clinical trial.)
Intravenous perfusions of Avastin from 5 to 10 mg/kg every 2 weeks, started, depending on the cases, before, during or after the beginning of CpG-ODN.

Substance | clinical outcome under single agent or on resuming the combination
Bevacizumab: monoclonal antibody directed against VEGF, marketed by Roche under the name of Avastin | progression
5′-TAAACGTTATAACGTTATGACGTCAT-3′ [CpG] | only a slight improvement
